Measured values: PubChem BioAssay (NCI)
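Values below derive from 48-hour exposures of cells grown in 96-well plates, with endpoints linearly interpolated between the two concentrations bracketing the appropriate inhibition level. GI50 is the concentration that inhibits growth by half. TGI marks complete inhibition of growth.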

Columns and labels:
Assay in all cases: NCI anticancer screen, dose series, 48 h
A549 NSCLC = test system: A549 NSCLC
CAKI-1 renal = test system: CAKI-1 renal
DU-145 prostate = test system: DU-145 prostate
HOP-92 NSCLC = test system: HOP-92 NSCLC
M14 melanoma = test system: M14 melanoma
MOLT-4 leukemia = test system: MOLT-4 leukemia
OVCAR-5 ovarian = test system: OVCAR-5 ovarian
OVCAR-8 ovarian = test system: OVCAR-8 ovarian
SNB-75 CNS = test system: SNB-75 CNS
UACC-62 melanoma = test system: UACC-62 melanoma

Structure (SMILES)	GI50 (A549 NSCLC) [µM]	TGI (A549 NSCLC) [µM]	GI50 (CAKI-1 renal) [µM]	TGI (CAKI-1 renal) [µM]	GI50 (DU-145 prostate) [µM]	TGI (DU-145 prostate) [µM]	GI50 (HOP-92 NSCLC) [µM]	TGI (HOP-92 NSCLC) [µM]	GI50 (M14 melanoma) [µM]	TGI (M14 melanoma) [µM]	GI50 (MOLT-4 leukemia) [µM]	TGI (MOLT-4 leukemia) [µM]	GI50 (OVCAR-5 ovarian) [µM]	TGI (OVCAR-5 ovarian) [µM]	GI50 (OVCAR-8 ovarian) [µM]	TGI (OVCAR-8 ovarian) [µM]	GI50 (SNB-75 CNS) [µM]	TGI (SNB-75 CNS) [µM]	GI50 (UACC-62 melanoma) [µM]	TGI (UACC-62 melanoma) [µM]
COc1ccc(OC)c(C2=C(c3cn(C)c4ccccc34)C(=O)NC2=O)c1	> 25	> 25	> 25	> 25	> 25	> 25	> 25	> 25	> 25	> 25	24.6	> 25	> 25	> 25	> 25	> 25	> 25	> 25	> 25	> 25
COc1cccc2nc(Nc3cccc(NC(=O)c4ccc(N5CCN(C)CC5)c(C(F)(F)F)c4)c3)ccc12	1.43	5.03	1.12	3.46	1.81	6.38	0.854	4.03	0.899	1.95	0.876	2.27	1.53	4.99	1.69	5.93	0.695	1.68	1.06	2.28
COc1ccc2c(c1)OCC1c3cc(OC)c4ccccc4c3OC21 (stereo not given)	15.8	> 100	5.05	44.9	18.8	> 100	22.3	> 100	7.23	> 100	9.82	> 100	10.2	57	44.4	> 100	11.8	47.9	3.05	18.9
O=S(=O)(NCCNc1nccc(-c2c(-c3ccc(F)cc3)nc3sccn23)n1)c1ccc(O)cc1	3.28	43.1	4.07	48.3	3.17	28.8	1.31	9.07	3.36	18.1	3.21	15.7	11.8	> 100	1.98	22.5	1.68	13.1	2.35	18.8
C=C(C(=O)c1ccccc1)C(NC(C)(C)C)c1ccccc1 (stereo not given)	2.74	7.79	1.91	7.42	3.11	13.2	2.38	6.83	1.87	4.65	1.76	21.9	2.37	4.65	3.02	10.8	4	16.6	1.54	4.02
